Consider 38 compounds from patent US8188284B2, “2-aminoquinolines” (Hoffman-La Roche Inc., priority 2008, dated 2012).

T1 sequence (P47898 whole entry): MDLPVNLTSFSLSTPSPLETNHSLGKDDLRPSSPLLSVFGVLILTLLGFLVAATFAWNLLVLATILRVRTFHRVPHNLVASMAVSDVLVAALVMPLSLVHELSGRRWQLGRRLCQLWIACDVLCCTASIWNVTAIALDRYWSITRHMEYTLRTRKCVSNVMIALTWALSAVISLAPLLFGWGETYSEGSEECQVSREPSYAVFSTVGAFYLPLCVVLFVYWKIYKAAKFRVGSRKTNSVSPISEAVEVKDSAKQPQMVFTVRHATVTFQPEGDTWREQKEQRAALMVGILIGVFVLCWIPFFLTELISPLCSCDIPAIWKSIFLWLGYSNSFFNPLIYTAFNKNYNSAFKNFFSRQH

One assay addresses T1, recombinant human 5-HT5A receptor (Homo sapiens, UniProt P47898).
T1 construct: expressed in transfected cells; host or cells: HEK-EBNA (Human Embryonic Kidney-EBNA) cells, transient cDNA expression, membranes
The assay is described as follows: [3H]LSD radioligand binding assay.
Settings: not given
On the procedure: A [^3H]LSD radioligand binding assay was used to determine the affinity of the compounds for the recombinant human 5-HT5A receptor, in membranes from transiently (cDNA) expressed 5-HT5A receptors in Human Embryonic Kidney-EBNA (HEK-EBNA) cells. Assay buffer consisted of Tris (50 mM) buffer containing 1 mM EGTA, 10 mM MgCl2 (pH 7.4) and 10 μM pargyline. The binding assay was carried out in 96-well-plates in the presence of [^3H]LSD (approximately 1 nM), approximately 2 μg/well of membrane protein, and 0.5 mg of Ysi-poly-1-lysine SPA beads in a final volume of 200 μl of buffer. Non-specific binding was defined using methiothepin 2 μM. Compounds were tested at 10 concentrations. All assays were conducted in duplicate and repeated at least two times. Assay plates were incubated for 120 min at room temperature before centrifugation. Bound ligand was determined using a Packard Topcount scintillation counter. IC50 values were calculated using a non-linear curve fitting program and Ki values calculated using the Cheng-Prussoff equation.
Turning to `COc1ccc(OC(=O)Nc2ccc3nc(N[C@@H]4CCc5ccccc54)ccc3c2)cc1` [Example 47, [2-((R)-Indan-1-ylamino)-quinolin-6-yl]-carbamic acid 4-methoxy-phenyl ester], the Ki was determined as 20 nM.

Staying with this assay, now noted: [3H]LSD (approximately 1 nM), membranes from HEK-EBNA cells transiently expressing 5-HT5A receptors; Ki calculated from IC50 using the Cheng-Prussoff equation; read-out: Ki/nM 5-HT5A.
As for `COc1cccc2c1C(Nc1ccc3cc(Nc4cccc(C)n4)ccc3n1)CC2` (racemic) [Example 94, rac-N^2-(7-Methoxy-indan-1-yl)-N^6-(6-methyl-pyridin-2-yl)-quinoline-2,6-diamine], the Ki is 3.4 nM. For the compound `COc1cccc2c1C(Nc1ccc3cc(NC(=O)Cn4ccnc4)ccc3n1)CC2` (racemic) [Example 100, rac-2-Imidazol-1-yl-N-[2-(7-methoxy-indan-1-ylamino)-quinolin-6-yl]-acetamide], the Ki was 21.2 nM. Take `Fc1ccc2c(c1)CCC2Nc1ccc2cc(Nc3cccc(C(F)(F)F)n3)ccc2n1` (racemic) [Example 102, rac-N^2-(5-Fluoro-indan-1-yl)-N^6-(6-trifluoromethyl-pyridin-2-yl)-quinoline-2,6-diamine]: the Ki was 19.1 nM. Turning to `Cc1cccc(Nc2ccc3nc(NC4CCc5cc(F)ccc54)ccc3c2)n1` (racemic) [Example 105, rac-N^2-(5-Fluoro-indan-1-yl)-N^6-(6-methyl-pyridin-2-yl)-quinoline-2,6-diamine], the Ki was 6.8 nM. For the compound `COc1cccc2c1C(Nc1ccc3cc(Nc4cccc(C)n4)ccc3n1)CO2` (racemic) [Example 112, rac-N^2-(4-Methoxy-2,3-dihydro-benzofuran-3-yl)-N^6-(6-methyl-pyridin-2-yl)-quinoline-2,6-diamine], the Ki is 8 nM. Still for that read-out and setting: the figure for `COc1cccc2c1C(Nc1ccc3cc(NC(=O)Cc4ccncc4)ccc3n1)CC2` (racemic) [Example 115, rac-N-[2-(7-Methoxy-indan-1-ylamino)-quinolin-6-yl]-2-pyridin-4-yl-acetamide] is 15 nM; for `COc1cccc(COc2ccc3nc(N[C@@H]4CCc5ccccc54)ccc3c2)c1` [Example 2, (R)-Indan-1-yl-[6-(3-methoxy-benzyloxy)-quinolin-2-yl]-amine] it is 92.4 nM. Regarding `c1cncc(CNc2ccc3nc(N[C@@H]4CCc5ccccc54)ccc3c2)c1` [Example 4, N^2—(R)-Indan-1-yl-N^6-pyridin-3-ylmethyl-quinoline-2,6-diamine], the Ki is 9.8 nM. With `c1ccc2c(c1)CC[C@H]2Nc1ccc2cc(NCCCn3ccnc3)ccc2n1` [Example 9, N^6-(3-Imidazol-1-yl-propyl)-N^2—(R)-indan-1-yl-quinoline-2,6-diamine], the Ki was 176 nM. On to `c1ccc2c(c1)CC[C@H]2Nc1ccc2cc(NCc3cccc4[nH]ccc34)ccc2n1` [Example 11, N^2—(R)-Indan-1-yl-N^6-(1-H-indol-4-ylmethyl)-quinoline-2,6-diamine], for which the Ki is 9.4 nM. Consider `c1ccc2c(c1)CC[C@H]2Nc1ccc2cc(NCc3ncc[nH]3)ccc2n1` [Example 12, N^6-(1H-Imidazol-2-ylmethyl)-N^2—(R)-indan-1-yl-quinoline-2,6-diamine], for which the Ki was 16.6 nM. Still for that read-out and setting: the figure for `c1ccc2c(c1)CC[C@H]2Nc1ccc2cc(NCc3nccs3)ccc2n1` [Example 13, N^2—(R)-Indan-1-yl-N^6-thiazol-2-ylmethyl-quinoline-2,6-diamine] is 7.6 nM.

For `O=S(=O)(Nc1ccc2nc(N[C@@H]3CCc4ccccc43)ccc2c1)c1ccc(F)cc1` [Example 14, 4-Fluoro-N-[2-((R)-indan-1-ylamino)-quinolin-6-yl]-benzenesulfonamide], the Ki was 36.4 nM.

For the compound `c1ccc2c(c1)CC[C@H]2Nc1ccc2cc(NCc3ccncc3)ccc2n1` [Example 15, N^2—(R)-Indan-1-yl-N^6-pyridin-4-ylmethyl-quinoline-2,6-diamine], the Ki is 33.7 nM. Still for that read-out and setting: the figure for `O=C(Nc1ccccc1)Nc1ccc2nc(N[C@@H]3CCc4ccccc43)ccc2c1` [Example 16, 1-[2-((R)-Indan-1-ylamino)-quinolin-6-yl]-3-phenyl-urea] is 4.9 nM. For `Cc1nc[nH]c1CNc1ccc2nc(N[C@@H]3CCc4ccccc43)ccc2c1` [Example 17, N^2—(R)-Indan-1-yl-N^6-(5-methyl-3-H-imidazol-4-ylmethyl)-quinoline-2,6-diamine], the Ki was 7.6 nM. Turning to `c1ccc2c(c1)CC[C@H]2Nc1ccc2cc(NCc3cc[nH]n3)ccc2n1` [Example 18, N^2—(R)-Indan-1-yl-N^6-(1-H-pyrazol-3-ylmethyl)-quinoline-2,6-diamine], the Ki is 9 nM. Same read-out and setting: the figure for `O=C(Nc1ccc(F)cc1)Nc1ccc2nc(N[C@@H]3CCc4ccccc43)ccc2c1` [Example 19, 1-(4-Fluoro-phenyl)-3-[2-((R)-indan-1-ylamino)-quinolin-6-yl]-urea] is 6.5 nM; for `O=C(Nc1cccc(F)c1)Nc1ccc2nc(N[C@@H]3CCc4ccccc43)ccc2c1` [Example 20, 1-(3-Fluoro-phenyl)-3-[2-((R)-indan-1-ylamino)-quinolin-6-yl]-urea] it is 7.8 nM; for `COc1ccc(NC(=O)Nc2ccc3nc(N[C@@H]4CCc5ccccc54)ccc3c2)cc1` [Example 21, 1-[2-((R)-Indan-1-ylamino)-quinolin-6-yl]-3-(4-methoxy-phenyl)-urea] it is 6.3 nM. In the case of `COc1cccc(NC(=O)Nc2ccc3nc(N[C@@H]4CCc5ccccc54)ccc3c2)c1` [Example 22, 1-[2-((R)-Indan-1-ylamino)-quinolin-6-yl]-3-(3-methoxy-phenyl)-urea], the Ki is 21.9 nM. Regarding `COc1ccccc1NC(=O)Nc1ccc2nc(N[C@@H]3CCc4ccccc43)ccc2c1` [Example 23, 1-[2-((R)-Indan-1-ylamino)-quinolin-6-yl]-3-(2-methoxy-phenyl)-urea], the Ki is 25.6 nM. Take `O=C(Nc1ccc2nc(N[C@@H]3CCc4ccccc43)ccc2c1)Nc1ccccc1F` [Example 25, 1-(2-Fluoro-phenyl)-3-[2-((R)-indan-1-ylamino)-quinolin-6-yl]-urea]: the Ki was 4.2 nM.

On to `C[C@@H](NC(=O)Nc1ccc2nc(N[C@@H]3CCc4ccccc43)ccc2c1)c1ccccc1` [Example 27, 1-[2-((R)-Indan-1-ylamino)-quinolin-6-yl]-3-((R)-1-phenyl-ethyl)-urea], for which the Ki was 9.8 nM. With `C[C@H](NC(=O)Nc1ccc2nc(N[C@@H]3CCc4ccccc43)ccc2c1)c1ccccc1` [Example 28, 1-[2-((R)-Indan-1-ylamino)-quinolin-6-yl]-3-((S)-1-phenyl-ethyl)-urea], the Ki is 36.7 nM. The same measure, in the same setting: the figure for `COc1ccc(CNC(=O)Nc2ccc3nc(N[C@@H]4CCc5ccccc54)ccc3c2)cc1` [Example 29, 1-[2-((R)-Indan-1-ylamino)-quinolin-6-yl]-3-(4-methoxy-benzyl)-urea] is 16.5 nM; for `O=C(Nc1ccc(Cl)nc1)Nc1ccc2nc(N[C@@H]3CCc4ccccc43)ccc2c1` [Example 31, 1-(6-Chloro-pyridin-3-yl)-3-[2-((R)-indan-1-ylamino)-quinolin-6-yl]-urea] it is 16.4 nM. As to `O=C(Nc1ccnc(Cl)c1)Nc1ccc2nc(N[C@@H]3CCc4ccccc43)ccc2c1` [Example 33, 1-(2-Chloro-pyridin-4-yl)-3-[2-((R)-indan-1-ylamino)-quinolin-6-yl]-urea], the Ki was 18.2 nM. On the same count and under the same terms, the figure for `CN(c1ccc(Cl)cc1)S(=O)(=O)Nc1ccc2nc(N[C@@H]3CCc4ccccc43)ccc2c1` [Example 40, N-(4-chlorophenyl)-N′-{2-[(1R)-2,3-dihydro-1H-inden-1-ylamino]quinolin-6-yl}-N-methylsulfamide] is 29.6 nM; for `CN(c1ccc(F)cc1)S(=O)(=O)Nc1ccc2nc(N[C@@H]3CCc4ccccc43)ccc2c1` [Example 41, N′-{2-[(1R)-2,3-dihydro-1H-inden-1-ylamino]quinolin-6-yl}-N-(4-fluorophenyl)-N-methylsulfamide] it is 25.8 nM.

On to `Cc1noc(C)c1NC(=O)Nc1ccc2nc(N[C@@H]3CCc4ccccc43)ccc2c1` [Example 42, 1-(3,5-Dimethyl-isoxazol-4-yl)-3-[2-((R)-indan-1-ylamino)-quinolin-6-yl]-urea], for which the Ki is 25.8 nM. For the compound `Cn1cncc1CNC(=O)Nc1ccc2nc(N[C@@H]3CCc4ccccc43)ccc2c1` [Example 45, 1-[2-((R)-Indan-1-ylamino)-quinolin-6-yl]-3-(3-methyl-3H-imidazol-4-ylmethyl)-urea], the Ki was 10.6 nM. In the case of `O=C(Nc1ccc2nc(N[C@@H]3CCc4ccccc43)ccc2c1)c1ccc(F)cc1` [Example 50, 4-Fluoro-N-[2-((R)-indan-1-ylamino)-quinolin-6-yl]-benzamide], the Ki was 72.5 nM. For `O=C(NCc1ccc2nc(N[C@@H]3CCc4ccccc43)ccc2c1)c1ccc(F)cc1` [Example 54, 4-Fluoro-N-[2-((R)-indan-1-ylamino)-quinolin-6-ylmethyl]-benzamide], the Ki was 141 nM. As for `Cn1nccc1NC(=O)Nc1ccc2nc(N[C@@H]3CCc4ccccc43)ccc2c1` [Example 58, 1-[2-((R)-Indan-1-ylamino)-quinolin-6-yl]-3-(2-methyl-2H-pyrazol-3-yl)-urea], the Ki was 20.3 nM. In the case of `c1ccc2c(c1)CC[C@H]2Nc1ccc2cc(-n3ccnc3)ccc2n1` [Example 61, (6-Imidazol-1-yl-quinolin-2-yl)-(R)-indan-1-yl-amine], the Ki was 422 nM. On the same count and under the same terms, the figure for `O=C(NC(=S)Nc1ccc2nc(N[C@@H]3CCc4ccccc43)ccc2c1)c1ccccc1` [Example 63, 1-Benzoyl-3-[2-((R)-indan-1-ylamino)-quinolin-6-yl]-thiourea] is 390 nM.
